Measurements as given in patent publication US9012642B2, “Pyrrolopyridinone compounds and methods for treating HIV” (ViiV Healthcare UK Limited, priority 2011, dated 2015).
Where two headings read alike, the source gives them in different places.

System: HIV
Assay: HIV MT4 Assay (antiviral HIV activity in MT-4 cells)
Type: cell-based
Procedure: Antiviral HIV activity and cytotoxicity values for compounds of the invention from Table 1 were measured in parallel in the HTLV-1 transformed cell line MT-4 based on the method previously described (Hazen et al., 2007, In vitro antiviral activity of the novel, tyrosyl-based human immunodeficiency virus (HIV) type 1 protease inhibitor brecanavir (GW640385) in combination with other antiretrovirals and against a panel of protease inhibitor-resistant HIV (Hazen et al., “In vitro antiviral activity of the novel, tyrosyl-based human immunodeficiency virus (HIV) type 1 protease inhibitor brecanavir (GW640385) in combination with other antiretrovirals and against a panel of protease inhibitor-resistant HIV”, Antimicrob. Agents Chemother. 2007, 51: 3147-3154; and Pauwels et al., “Sensitive and rapid assay on MT-4 cells for the detection of antiviral compounds against the AIDS virus”, (J. of Virological Methods 1987, 16: 171-185).
Luciferase activity was measured 96 hours later by adding a cell titer glo (Promega, Madison, Wis.). Percent inhibition of cell protection data was plotted relative to no compound control. Under the same condition, cytotoxicity of the compounds was determined using cell titer Glo™ (Promega, Madison, Wis.). IC50s were determined from a 10 point dose response curve using 3-4-fold serial dilution for each compound, which spans a concentration range >1000 fold.
These values are plotted against the molar compound concentrations using the standard four parameter logistic equation: y=((Vmax*x^n)/(K^n+x^n))+Y^2
Y^2=minimum y n=slope factor
Vmax=maximum y x=compound concentration [M]

[1] = Human immunodeficiency virus 1, MT4, HTLV-1 transformed cell line MT-4, luciferase activity measured 96 hours later, Table 3, read-out: HIV MT4 Assay IC50
[2] = MT4, 96 h, read-out: MT4 (IC50)

Compound | IC50 [1] [nM] | IC50 [2] [nM]
Cn1c(C(OC(C)(C)C)C(=O)O)c(-c2ccc(Cl)cc2)c2ccn(S(=O)(=O)c3ccc(F)cc3)c2c1=O (centres unmarked) [Example 16, 2-(tert-butoxy)-2-(4-(4-chlorophenyl)-1-((4-fluorophenyl)sulfonyl)-6-methyl-7-oxo-6,7-dihydro-1H-pyrrolo[2,3-c]pyridin-5-yl)acetic acid] | 1800 | 1800
COCCn1ccc2c(-c3ccc(Cl)cc3)c(C(OC(C)(C)C)C(=O)O)n(C)c(=O)c21 (centres unmarked) [Example 4, 2-(tert-butoxy)-2-(4-(4-chlorophenyl)-1-(2-methoxyethyl)-6-methyl-7-oxo-6,7-dihydro-1H-pyrrolo[2,3-c]pyridin-5-yl)acetic acid] | 1550 | 1550
Cc1ccc(-c2c(C(OC(C)(C)C)C(=O)O)n(C)c(=O)c3c2ccn3Cc2cc(F)c(F)c(F)c2)cc1 (centres unmarked) [Example 32, 2-(tert-butoxy)-2-(6-methyl-7-oxo-4-(p-tolyl)-1-(3,4,5-trifluorobenzyl)-6,7-dihydro-1H-pyrrolo[2,3-c]pyridin-5-yl)acetic acid] | 80 | 80
Cc1ccc(-c2c(C(OC(C)(C)C)C(=O)O)n(C)c(=O)c3c2cnn3Cc2ccc(F)cc2)cc1 (centres unmarked) [Example 64, 2-(tert-Butoxy)-2-(1-(4-fluorobenzyl)-6-methyl-7-oxo-4-(p-tolyl)-6,7-dihydro-1H-pyrazolo[3,4-c]pyridin-5-yl)acetic acid] | 180 | 180
COc1ccc(Cn2ccc3c(-c4ccc(Cl)cc4)c(C(OC(C)(C)C)C(=O)O)n(C)c(=O)c32)cc1 (centres unmarked) [Example 3, 2-(tert-butoxy)-2-(4-(4-chlorophenyl)-1-(4-methoxybenzyl)-6-methyl-7-oxo-6,7-dihydro-1H-pyrrolo[2,3-c]pyridin-5-yl)acetic acid] | 460 | 460
Cc1ccc(S(=O)(=O)n2ccc3c(-c4ccc(Cl)cc4)c(C(OC(C)(C)C)C(=O)O)n(C)c(=O)c32)cc1 (centres unmarked) [Example 17, 2-(tert-butoxy)-2-(4-(4-chlorophenyl)-6-methyl-7-oxo-1-tosyl-6,7-dihydro-1H-pyrrolo[2,3-c]pyridin-5-yl)acetic acid] | 1200 | 1200
Cc1ccc(-c2c([C@H](OC(C)(C)C)C(=O)O)n(C)c(=O)c3c2ccn3Cc2ccc(F)cc2)cc1 [Example 24, (S)-2-(tert-butoxy)-2-(1-(4-fluorobenzyl)-6-methyl-7-oxo-4-(p-tolyl)-6,7-dihydro-1H-pyrrolo[2,3-c]pyridin-5-yl)acetic acid] | 40 | 40
Cc1ccc(-c2c(C(OC(C)(C)C)C(=O)O)n(C)c(=O)c3c2ccn3Cc2ccc3c(c2)OCO3)cc1 (centres unmarked) [Example 33, 2-(1-(benzo[d][1,3]dioxol-5-ylmethyl)-6-methyl-7-oxo-4-(p-tolyl)-6,7-dihydro-1H-pyrrolo[2,3-c]pyridin-5-yl)-2-(tert-butoxy)acetic acid] | 210 | 210
Cc1c(-c2c(C(OC(C)(C)C)C(=O)O)n(C)c(=O)c3sc4c(c23)CCCC4)ccc2c1CCCO2 (centres unmarked) [Example 55, tert-Butoxy-[2-methyl-4-(5-methyl-chroman-6-yl)-1-oxo-1,2,5,6,7,8-hexahydro-benzo[4,5]thieno[2,3-c]pyridin-3-yl]-acetic acid] | 130 | 130
Cc1c(-c2c(C(OC(C)(C)C)C(=O)O)n(C)c(=O)c3c2ccn3C)ccc2c1CCCO2 (centres unmarked) [Example 40, 2-(tert-butoxy)-2-(1,6-dimethyl-4-(5-methylchroman-6-yl)-7-oxo-6,7-dihydro-1H-pyrrolo[2,3-c]pyridin-5-yl)acetic acid] | 500 | 500
Cc1ccc(-c2c(C(OC(C)(C)C)C(=O)O)n(C)c(=O)c3c2c2c(n3Cc3ccc(F)cc3)CCCC2)cc1 (centres unmarked) [Example 59, 2-(tert-butoxy)-2-(9-(4-fluorobenzyl)-2-methyl-1-oxo-4-(p-tolyl)-2,5,6,7,8,9-hexahydro-1H-pyrido[3,4-b]indol-3-yl)acetic acid] | 280 | 280
Cc1ccc(-c2c(C(OC(C)(C)C)C(=O)O)n(C)c(=O)c3c2ccn3C)cc1 (centres unmarked) [Example 30, 2-(tert-butoxy)-2-(1,6-dimethyl-7-oxo-4-(p-tolyl)-6,7-dihydro-1H-pyrrolo[2,3-c]pyridin-5-yl)acetic acid] | 1100 | 1100
CC(c1ccccc1)n1ccc2c(-c3ccc(Cl)cc3)c(C(OC(C)(C)C)C(=O)O)n(C)c(=O)c21 (centres unmarked) [Example 13, 2-(tert-butoxy)-2-(4-(4-chlorophenyl)-6-methyl-7-oxo-1-(1-phenylethyl)-6,7-dihydro-1H-pyrrolo[2,3-c]pyridin-5-yl)acetic acid] | 400 | 400
COc1ccc(Cn2ccc3c(-c4ccc5c(c4C)CCCO5)c(C(OC(C)(C)C)C(=O)O)n(C)c(=O)c32)cc1 (atropisomer, axis not shown; (M)) [Example 53, (S)(M)-2-(tert-butoxy)-2-(1-(4-methoxybenzyl)-6-methyl-4-(5-methylchroman-6-yl)-7-oxo-6,7-dihydro-1H-pyrrolo[2,3-c]pyridin-5-yl)acetic acid] | 10 | 10
Cc1ccc(NC(=O)Cn2ccc3c(-c4ccc(Cl)cc4)c(C(OC(C)(C)C)C(=O)O)n(C)c(=O)c32)c(O)c1 (centres unmarked) [Example 12, 2-(tert-butoxy)-2-(4-(4-chlorophenyl)-1-(2-((2-hydroxy-4-methylphenyl)amino)-2-oxoethyl)-6-methyl-7-oxo-6,7-dihydro-1H-pyrrolo[2,3-c]pyridin-5-yl)acetic acid] | 3250 | 3250
Cc1ccc(-c2c(C(OC(C)(C)C)C(=O)O)n(C)c(=O)c3c2ccn3Cc2cccs2)cc1 (centres unmarked) [Example 25, 2-(tert-butoxy)-2-(6-methyl-7-oxo-1-(thiophen-2-ylmethyl)-4-(p-tolyl)-6,7-dihydro-1H-pyrrolo[2,3-c]pyridin-5-yl)acetic acid] | 220 | 220
Cc1ccc(-c2c(C(OC(C)(C)C)C(=O)O)n(C)c(=O)c3c2c2ccccc2n3C)cc1 (centres unmarked) [Example 57, 2-(tert-butoxy)-2-(2,9-dimethyl-1-oxo-4-(p-tolyl)-2,9-dihydro-1H-pyrido[3,4-b]indol-3-yl)acetic acid] | 80 | 80
Cc1c(-c2c(C(OC(C)(C)C)C(=O)O)n(C)c(=O)c3c2ccn3Cc2ccc(Cl)cc2)ccc2c1CCCO2 (centres unmarked) [Example 44, 2-(tert-butoxy)-2-(1-(4-chlorobenzyl)-6-methyl-4-(5-methylchroman-6-yl)-7-oxo-6,7-dihydro-1H-pyrrolo[2,3-c]pyridin-5-yl)acetic acid] | 50 | 50
COc1ccc(Cn2ncc3c(-c4ccc5c(c4C)CCCO5)c(C(OC(C)(C)C)C(=O)O)n(C)c(=O)c32)cc1 (centres unmarked) [Example 65] | 410 | 410
Cc1c(-c2c(C(OC(C)(C)C)C(=O)O)n(C)c(=O)c3c2ccn3Cc2ccc(C(F)(F)F)cc2)ccc2c1CCCO2 (centres unmarked) [Example 46, 2-(tert-butoxy)-2-(6-methyl-4-(5-methylchroman-6-yl)-7-oxo-1-(4-(trifluoromethyl)benzyl)-6,7-dihydro-1H-pyrrolo[2,3-c]pyridin-5-yl)acetic acid] | 90 | 90
Cc1ccc(-c2c(C(OC(C)(C)C)C(=O)O)n(C)c(=O)c3c2c2c(n3C)CCCC2)cc1 (centres unmarked) [Example 60, 2-(tert-butoxy)-2-(2,9-dimethyl-1-oxo-4-(p-tolyl)-2,5,6,7,8,9-hexahydro-1H-pyrido[3,4-b]indol-3-yl)acetic acid] | 50 | 50
Cc1ccc(-c2c(C(OC(C)(C)C)C(=O)O)n(C)c(=O)c3c2ccn3Cc2ccc(B(O)O)cc2)cc1 (centres unmarked) [Example 21, 2-(1-(4-boronobenzyl)-6-methyl-7-oxo-4-(p-tolyl)-6,7-dihydro-1H-pyrrolo[2,3-c]pyridin-5-yl)-2-(tert-butoxy)acetic acid] | 2700 | 2700
Cc1c(-c2c(C(OC(C)(C)C)C(=O)O)n(C)c(=O)c3c2ccn3Cc2ccc([N+](=O)[O-])cc2)ccc2c1CCCO2 (centres unmarked) [Example 47, 2-(tert-butoxy)-2-(6-methyl-4-(5-methylchroman-6-yl)-1-(4-nitrobenzyl)-7-oxo-6,7-dihydro-1H-pyrrolo[2,3-c]pyridin-5-yl)acetic acid] | 40 | 40
Cn1c(C(OC(C)(C)C)C(=O)O)c(-c2ccc(Cl)cc2)c2ccn(Cc3cc(F)ccc3F)c2c1=O (centres unmarked) [Example 8, 2-(tert-butoxy)-2-(4-(4-chlorophenyl)-1-(2,5-difluorobenzyl)-6-methyl-7-oxo-6,7-dihydro-1H-pyrrolo[2,3-c]pyridin-5-yl)acetic acid] | 130 | 130
COc1ccc(Cn2ccc3c(-c4ccc(C)cc4)c(C(OC(C)(C)C)C(=O)O)n(C)c(=O)c32)cc1 (centres unmarked) [Example 29, 2-(tert-butoxy)-2-(1-(4-methoxybenzyl)-6-methyl-7-oxo-4-(p-tolyl)-6,7-dihydro-1H-pyrrolo[2,3-c]pyridin-5-yl)acetic acid] | 170 | 170
